Series [1] can be described thus: in vivo. Particulars: dog, po. The method, then:
(§1) Three studies were performed to investigate the pharmacokinetics of oral administration of a scyllo-cyclohexanehexyl (Table 1):
Two studies have investigated the single dose PK of oral administration of a scyllo-cyclohexanehexyl in dogs. The 14 day study investigated 18 animals. On Day 1 of this study Cmax and AUC values increased proportionally with dose level of a scyllo-cyclohexanehexyl. […] The extensive brain penetrance of the scyllo-cyclohexanhexyl (see below) may be relevant in this regard.

The nature of series [2]: CSF and plasma levels at end of 14 day repeat dose study in dogs. In kind it is in vivo, dog. Particulars: 30 mg/kg/day for 14 days. The procedure:
CSF was also collected from dogs at the end of the 14 day repeat study upon necropsy (approximately 24 hours after the final dose was administered). Levels of the scyllo-cyclohexanehexyl in CSF increased with dose and followed the profile observed in plasma.

A short description of series [3]: in vivo. The following applies: rat. The procedure:
Plasma PK of a scyllo-cyclohexanehexyl compound in rats was assessed after 28 days oral dosing of 15, 50 and 150 mg/kg, administered twice daily. […] Indeed, at this dose level, the Vdss, clearance and elimination rates appeared to be reduced with repeated dosing. […] As for single doses, the scyllo-cyclohexanehexyl was absorbed rapidly, with mean tmax observed between 1.2 and 1.3 hours post-dose. […] Estimates of MRT were consistent.

A short description of series [4]: in vivo. The following applies: dog, po, 150 mg/kg. The procedure: Plasma PK of a scyllo-cyclohexanhexyl in dogs was assessed after 14 days oral dosing of 15, 50 and 150 mg/kg, administered twice daily. As on Day 1 of this study Cmax and AUC values increased proportionally with dose level of scyllo-cyclohexanehexyl. However, dose-normalised exposures appeared to decrease with dose. This contrasts with positive trend observed after acute exposure. […] As for single doses, the scyllo-cyclohexanehexyl was absorbed rapidly, with tmax observed between 1.1 and 1.8 hours post-dose. […] Estimates of MRT were consistent. The Vdss and Cl/F values were similar for all dose levels.

Series [5] is described as follows: Brain penetrance: plasma and CSF pharmacokinetics after single oral doses in dogs. The series is classed as in vivo, dog. The source says:
CSF bathes the central nervous system and sits on the inside of the blood brain barrier. Although a centrally-acting drug will still need to penetrate brain tissue to exert an effect, quantification of drug in CSF may provide a gross estimate of brain-penetrance.

Series [6] can be described thus: Single oral and intravenous dose pharmacokinetics, dose range-finding study in beagle dogs. In kind it is in vivo, beagle dog. Particulars: dogs, comparison of PK profiles following oral and i.v. administration. The procedure:
PK of single oral doses of the scyllo-cyclohexanhexyl was also investigated in a preliminary fashion in a dose range-finding study in 5 beagle dogs. […] The Cmax and AUC values increased proportionally with dose, consistent with observations in the larger study. Estimates of t½ ranged from 2 to 5 hours. Neither dose nor route of administration had any clear effect on t½, MRT, Cl/F or Vdss.

Series [7] in a line: in vivo. Particulars: rat, po, 150 mg/kg. The procedure: as §1
Plasma pharmacokinetics (PK) of a scyllo-cyclohexanehexyl in rats was assessed after single oral doses of 15, 50 and 150 mg/kg. After single oral doses in rats, maximum plasma concentration (Cmax) and exposure (AUC0-t) values increased proportionally with dose level of the scyllo-cyclohexanehexyl. Other parameters were unchanged with dose level. The scyllo-cyclohexanehexyl was absorbed rapidly, with mean tmax observed between 1.0 and 2.2 hours post-dose. […] Estimates of mean residence time (MRT) were consistent. Volumes of distribution (Vdss) were large, indicating wide distribution of scyllo-cyclohexanehexyl in rats.

[8] abbreviates: single oral doses 20, 80, 240 mg/kg.

A word on the Tmax: it is the time at which the peak concentration occurs. As usually defined, the t½ is the time in which the quantity being followed falls by half. Read a low t½ as rapid decline. The AUC(0-t) is exposure summed from dosing to a finite time, without extrapolation to infinity. Low values mean low exposure, high ones high exposure.

Where “and” joins values, the source holds several entries; their conditions need not be identical. Equal entries are not always repeated. Bounds are passed on as bounds.

In the case of scyllo-inositol [AZD-103], in series [1], the time of peak concentration (Tmax) was 1.2 to 2.2 h and the t½ lay in the range of 1.7 to 2.2 h. The “levels in both plasma and CSF (12 and 24 hours after the last administration)” value in series [2] was ~4000 ng/mL. In series [3], the “mean plasma concentration 12 hours after the last administration” value is ~6000 ng/mL. In series [3] (po, 150 mg/kg), this substance yielded an AUC(0-t) of 573 µg·h/mL, a mean tmax of 1.2 to 1.3 h and a t½ of 3.1 to 4.4 h. Besides, in series [4], the area under the curve AUC(0-t) was determined as 523 µg·h/mL, the Tmax was in the range of 1.1 to 1.8 h and the t½ is 2.9 to 4.7 h. Further, in series [5], the “Mean Cmax and AUC0-Inf in CSF as % of that observed in plasma” value is 60%. In series [5] (setting [8]), the “plasma tmax (same animals)” value was 2.3 to 2.8 h and the “tmax in CSF” value lay in the range of 2.8 to 4.0 h. Further, the “Mean Cmax in CSF as % of plasma Cmax” value in series [5] (single oral doses 20, 80, 240 mg/kg, same animals) is 27-66%. Moreover, the “AUC0-Inf in CSF as % of that in plasma” value in series [5] (single oral doses, same animals, listed as scyllo-cyclohexanehexyl) was 62% and 65%. For the same substance, the estimated bioavailability in series [6] is given as > 90%. Further, in series [7], the “half life (t1/2)” value lay within 2.1 to 2.7 h and the mean tmax lay within 1.0 to 2.2 h.

The values above are taken from patent US20100113613A1, “CYCLOHEXANE POLYALCOHOL FORMULATION FOR TREATMENT OF DISORDERS OF PROTEIN AGGREGATION” (WARATAH PHARMACEUTICALS, priority 2006, published 2010).
